Experimental data published in patent US6207656A, “Vitamin D analogues and their neuronal effects” (Cephalon, Inc., priority 1998, dated 2001).

Legend:
[1] = Calcemic activity in rats, serum calcium after 7 days oral gavage; format: in vivo, LEW/MOL female rats; conditions: for Calcium in Serum: 0.5 μg/kg/day p.o., ± S.D.
Method: For determining calcemic activity, LEW/MOL female rats (130-170 g) were administered test compounds daily for 7 days by oral gavage. Control rats received the vehicle. Each group consisted of 3 rats. Blood was collected by cardiac puncture on day 7.

[2] = cited from earlier work

- Calcium in Serum ([1]; Table 2A (vehicle 2.46 ± 0.06)): 2.71 ± 0.08 mmol/L
- Calcium in Serum ([1]; Table 2B (vehicle 2.57 ± 0.06)): 2.66 ± 0.10 mmol/L
- Calcium in Serum ([1]; Table 2C (vehicle 2.68 ± 0.03)): 2.77 ± 0.03 mmol/L
- Calcium in Serum ([1]; Table 2D (vehicle 2.51 ± 0.09)): 2.71 ± 0.03 mmol/L
- Calcium in Serum ([1]; Table 2E (vehicle 2.51 ± 0.09)): 2.71 ± 0.03 mmol/L
- Calcemic Activity (%) ([1]; potency relative to 1α,25(OH)2 D3, rats, p.o. 7 days): 100%
SMILES: C=C1/C(=C\C=C2/CCC[C@]3(C)[C@@H]([C@H](C)CCCC(C)(C)O)CC[C@@H]23)C[C@@H](O)C[C@@H]1O [1α,25(OH)2 D3, 1,25-dihydroxy vitamin D3, reference compound]
- serum calcium levels at doses that induce NGF ([2]; background): increase serum calcium levels at doses that induce NGF
- calcemic effect at efficacious doses ([2]; based upon previous data): calcemic
